According to US20080275058A1, “N-Substituted-1H-Quinoline-2,4-Diones, Preparation Method Thereof, And Pharmaceutical Composition Containing The Same” (KOREA RESEARCH INSTITUTE OF CHEMICAL TECHNOLOGY, priority 2005, published 2008):
Like-named read-outs stand apart in the source and are kept apart here.

Key:
D1 = D1 (Homo sapiens, UniProt P21728); test: Radioligand binding, dopamine D1; details: Table 4; read-out: Binding affinity, IC50 (nM) D1
hD2L = target: T1, hD2L (Homo sapiens, UniProt P14416); test: Radioligand binding, dopamine D2 ([3H]spiperone); details: Table 4; [3H]spiperone 1 nM; read-out: Binding affinity, IC50 (nM) D2
T1 construct: purchased BioSignal Packard Inc., Montreal, Canada
Experimental: (§1) 2-2: Binding assays of Dopamine Receptor Family
(§2) The radioligands used were [^3H] spiperone (for hD2L and hD3 receptors, 1 nM) and [^3H] YM-09151-2 (for hD4.2 receptor, 0.06 nM). Radioligand bindings were performed by the protocols provided by the supplier of receptor membranes (BioSignal Packard Inc., Montreal, Canada). Briefly, the buffer used in D2 or D3 receptor binding assay was 50 mM Tris-HCl (pH 7.4), 10 mM MgCl2, 1 mM EDTA, or 50 mM Tris-HCl (pH 7.4), 5 mM MgCl2, 5 mM EDTA, 5 mM KCl, 1.5 mM CaCl2, 120 mM NaCl, respectively. In [^3H] YM-09151-2 receptor binding assays, the buffer containing 50 mM Tris-HCl (pH 7.4), 5 mM MgCl2, 5 mM EDTA, 5 mM KCl and 1.5 mM CaCl2 was used. […] Competition binding studies were carried out with 7-8 concentrations of the test compound run in duplicate tubes, and isotherms from three assays were calculated by computerized nonlinear regression analysis (GraphPad Prism Program, San Diego, […]) to yield median inhibitory concentration (IC50) values.

5-HT1a = target: T2, 5-HT1a (Homo sapiens, UniProt P08908); test: Radioligand binding, 5-HT1a ([3H]8-OH-DPAT); details: Table 4; [3H]8-OH-DPAT 0.5 nM; read-out: Binding affinity, IC50 (nM) 5-HT1a
T2 construct: purchased Euroscreen/BioSignal Packard Inc
T2 sequence (P08908 1-422): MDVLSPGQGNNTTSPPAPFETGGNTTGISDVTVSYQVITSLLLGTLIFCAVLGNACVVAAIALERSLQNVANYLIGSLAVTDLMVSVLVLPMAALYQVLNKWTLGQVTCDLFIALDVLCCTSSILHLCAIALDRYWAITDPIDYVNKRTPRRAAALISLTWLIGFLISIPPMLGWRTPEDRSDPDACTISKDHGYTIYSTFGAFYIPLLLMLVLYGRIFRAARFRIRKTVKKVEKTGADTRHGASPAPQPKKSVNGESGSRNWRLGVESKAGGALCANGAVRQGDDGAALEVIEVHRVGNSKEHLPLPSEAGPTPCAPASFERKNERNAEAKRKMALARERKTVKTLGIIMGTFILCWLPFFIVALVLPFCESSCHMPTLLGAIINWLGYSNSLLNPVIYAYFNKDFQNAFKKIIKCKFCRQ
Experimental: Radioligand bindings were performed according to the test method provided by the supplier of receptor membrane (Euroscreen/BioSignal Packard Inc.). The detailed assay conditions and the results were shown in the following Table 3 and Table 4, respectively.

hD3 = target: T3, hD3 (Homo sapiens, UniProt P35462); test: Radioligand binding, dopamine D3 ([3H]spiperone); details: Table 4; [3H]spiperone 1 nM; read-out: Binding affinity, IC50 (nM) D3
T3 construct: purchased BioSignal Packard Inc., Montreal, Canada
Experimental: as §1, §2

5-HT2a = target: T4, 5-HT2a (Homo sapiens, UniProt P28223); test: Radioligand binding, 5-HT2a ([3H]Ketanserin); details: Table 4; [3H]Ketanserin 1 nM; read-out: Binding affinity, IC50 (nM) 5-HT2a
T4 construct: purchased Euroscreen/BioSignal Packard Inc

[1] = target: T5, Human serotonin 5-HT6 receptor (Homo sapiens, UniProt P50406); test: [3H]LSD binding assay on cloned 5-HT6 receptor membranes; details: for binding affinity at 5-HT6 receptor labeled by [3H]LSD, in words: comment on Table 2
T5 construct: made in house; host or cells: insect Sf21 cells (baculovirus vector BacPAK8)

5-HT7 = target: T6, 5-HT7 (Homo sapiens, UniProt P34969); test: Radioligand binding, 5-HT7 ([3H]LSD); details: Table 4; [3H]LSD 3 nM; read-out: Binding affinity, IC50 (nM) 5-HT7
T6 construct: purchased Euroscreen/BioSignal Packard Inc

hD4.2 receptor = target: T7, hD4.2 receptor (Homo sapiens, UniProt P21917, DEL265-296); test: Radioligand binding, dopamine D4 ([3H]YM-09151-2); details: Table 4; [3H]YM-09151-2 0.06 nM; read-out: Binding affinity, IC50 (nM) D4
T7 construct: purchased BioSignal Packard Inc., Montreal, Canada
T7 sequence (P21917 with tags, fused parts or gaps DEL265-296): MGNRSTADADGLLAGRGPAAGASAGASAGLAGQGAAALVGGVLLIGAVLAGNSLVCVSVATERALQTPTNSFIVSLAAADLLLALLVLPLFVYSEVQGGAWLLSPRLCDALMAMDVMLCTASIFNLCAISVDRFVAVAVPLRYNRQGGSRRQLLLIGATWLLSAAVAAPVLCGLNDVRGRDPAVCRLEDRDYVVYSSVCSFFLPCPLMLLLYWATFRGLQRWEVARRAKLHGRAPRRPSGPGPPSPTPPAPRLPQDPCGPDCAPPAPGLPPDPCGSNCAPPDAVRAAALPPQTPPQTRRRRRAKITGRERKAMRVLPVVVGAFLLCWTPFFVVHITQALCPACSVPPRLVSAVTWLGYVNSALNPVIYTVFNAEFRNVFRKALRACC
Experimental: as §1, §2

5-HT2c = target: T8, 5-HT2c (Homo sapiens, UniProt P28335); test: Radioligand binding, 5-HT2c ([3H]Mesulergine); details: Table 4; [3H]Mesulergine 1 nM; read-out: Binding affinity, IC50 (nM) 5-HT2c
T8 construct: purchased Euroscreen/BioSignal Packard Inc
T8 sequence (P28335 33-458): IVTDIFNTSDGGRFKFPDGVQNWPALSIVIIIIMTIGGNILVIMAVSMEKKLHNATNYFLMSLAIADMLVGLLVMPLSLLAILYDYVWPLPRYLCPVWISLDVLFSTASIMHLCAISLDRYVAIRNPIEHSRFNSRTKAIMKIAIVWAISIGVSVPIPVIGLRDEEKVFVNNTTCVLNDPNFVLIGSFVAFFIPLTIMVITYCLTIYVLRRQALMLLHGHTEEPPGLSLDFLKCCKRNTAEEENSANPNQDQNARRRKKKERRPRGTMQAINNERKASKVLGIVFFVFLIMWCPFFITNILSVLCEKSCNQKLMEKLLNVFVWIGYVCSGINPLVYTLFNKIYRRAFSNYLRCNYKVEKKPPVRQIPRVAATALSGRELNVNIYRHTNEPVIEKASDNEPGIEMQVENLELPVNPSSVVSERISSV

[2] = Table 2, 1.87 nM [3H]LSD, 37 C, 60 min, read-out: IC50 (nM), binding affinity to the 5-HT6 receptor
[3] = Table 4, read-out: Binding affinity, IC50 (nM) 5-HT6

T3 sequence (P35462 whole entry): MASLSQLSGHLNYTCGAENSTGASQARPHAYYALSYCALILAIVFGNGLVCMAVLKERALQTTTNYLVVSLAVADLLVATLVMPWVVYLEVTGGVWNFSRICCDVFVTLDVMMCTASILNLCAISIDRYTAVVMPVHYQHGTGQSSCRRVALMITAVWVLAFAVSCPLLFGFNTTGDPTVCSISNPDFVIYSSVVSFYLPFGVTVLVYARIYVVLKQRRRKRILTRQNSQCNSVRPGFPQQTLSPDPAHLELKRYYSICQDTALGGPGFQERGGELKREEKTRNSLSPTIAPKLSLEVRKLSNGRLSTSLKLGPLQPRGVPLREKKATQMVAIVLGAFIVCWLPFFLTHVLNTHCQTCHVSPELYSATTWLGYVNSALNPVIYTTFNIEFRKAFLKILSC
T5 sequence (P50406 whole entry): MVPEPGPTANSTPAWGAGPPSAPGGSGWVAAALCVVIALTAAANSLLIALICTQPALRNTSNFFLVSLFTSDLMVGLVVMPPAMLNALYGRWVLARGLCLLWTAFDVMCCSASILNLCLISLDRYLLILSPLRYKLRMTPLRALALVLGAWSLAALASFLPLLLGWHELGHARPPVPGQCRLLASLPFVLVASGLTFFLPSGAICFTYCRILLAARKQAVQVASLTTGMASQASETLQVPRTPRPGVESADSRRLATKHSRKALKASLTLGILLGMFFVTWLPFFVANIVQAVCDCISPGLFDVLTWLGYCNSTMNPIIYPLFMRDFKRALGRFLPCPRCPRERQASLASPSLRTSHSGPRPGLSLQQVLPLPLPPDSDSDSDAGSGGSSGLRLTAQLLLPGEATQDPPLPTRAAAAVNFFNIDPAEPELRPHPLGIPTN
T6 sequence (P34969 whole entry): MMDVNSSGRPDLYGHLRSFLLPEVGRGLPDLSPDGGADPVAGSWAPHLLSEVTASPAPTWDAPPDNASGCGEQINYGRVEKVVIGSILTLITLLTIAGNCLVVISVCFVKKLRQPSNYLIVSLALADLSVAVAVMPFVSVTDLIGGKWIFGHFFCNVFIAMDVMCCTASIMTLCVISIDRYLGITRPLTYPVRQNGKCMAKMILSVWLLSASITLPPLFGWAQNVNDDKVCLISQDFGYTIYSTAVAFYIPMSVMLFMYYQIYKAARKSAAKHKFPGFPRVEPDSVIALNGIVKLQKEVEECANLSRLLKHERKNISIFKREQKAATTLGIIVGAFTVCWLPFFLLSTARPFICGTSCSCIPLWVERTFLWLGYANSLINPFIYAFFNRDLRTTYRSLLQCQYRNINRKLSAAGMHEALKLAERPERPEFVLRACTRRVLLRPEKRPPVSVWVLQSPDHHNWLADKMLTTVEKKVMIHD
T1 sequence (P14416 whole entry): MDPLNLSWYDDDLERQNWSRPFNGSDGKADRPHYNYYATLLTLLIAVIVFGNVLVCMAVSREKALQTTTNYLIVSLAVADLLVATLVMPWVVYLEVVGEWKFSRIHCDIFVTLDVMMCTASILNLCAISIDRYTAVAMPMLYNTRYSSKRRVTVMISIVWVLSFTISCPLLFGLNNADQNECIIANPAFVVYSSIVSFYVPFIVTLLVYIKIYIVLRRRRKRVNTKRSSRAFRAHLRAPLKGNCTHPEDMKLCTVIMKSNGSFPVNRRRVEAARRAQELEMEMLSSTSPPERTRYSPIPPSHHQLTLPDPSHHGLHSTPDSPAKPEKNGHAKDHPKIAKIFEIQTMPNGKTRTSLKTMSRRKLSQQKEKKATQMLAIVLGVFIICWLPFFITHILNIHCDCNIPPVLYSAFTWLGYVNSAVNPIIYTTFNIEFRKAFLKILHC
T4 sequence (P28223 whole entry): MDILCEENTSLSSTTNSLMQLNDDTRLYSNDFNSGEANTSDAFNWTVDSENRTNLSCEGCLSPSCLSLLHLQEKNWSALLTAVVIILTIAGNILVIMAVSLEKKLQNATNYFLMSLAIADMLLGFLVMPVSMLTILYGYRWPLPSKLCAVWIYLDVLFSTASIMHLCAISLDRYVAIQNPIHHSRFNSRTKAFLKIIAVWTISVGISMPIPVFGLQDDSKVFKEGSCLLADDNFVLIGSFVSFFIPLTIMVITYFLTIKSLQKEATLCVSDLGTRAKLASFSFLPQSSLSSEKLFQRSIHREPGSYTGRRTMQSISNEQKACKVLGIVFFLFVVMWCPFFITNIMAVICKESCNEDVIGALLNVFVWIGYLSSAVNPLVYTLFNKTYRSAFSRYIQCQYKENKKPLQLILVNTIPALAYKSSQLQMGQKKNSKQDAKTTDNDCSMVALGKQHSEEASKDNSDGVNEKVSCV
Chain of D1 (P21728 whole entry): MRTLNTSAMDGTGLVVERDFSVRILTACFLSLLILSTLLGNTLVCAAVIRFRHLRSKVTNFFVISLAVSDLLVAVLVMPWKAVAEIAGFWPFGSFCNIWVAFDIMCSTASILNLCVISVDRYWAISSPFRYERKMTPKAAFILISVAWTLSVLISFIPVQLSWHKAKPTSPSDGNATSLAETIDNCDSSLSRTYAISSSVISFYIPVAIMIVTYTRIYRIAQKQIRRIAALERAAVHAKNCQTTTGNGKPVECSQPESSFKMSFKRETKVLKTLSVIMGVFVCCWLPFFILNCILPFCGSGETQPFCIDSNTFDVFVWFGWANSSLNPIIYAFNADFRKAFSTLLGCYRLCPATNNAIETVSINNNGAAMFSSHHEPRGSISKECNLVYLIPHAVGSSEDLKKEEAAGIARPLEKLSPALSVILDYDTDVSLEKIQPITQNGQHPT

SMILES	IC50 (D1) [nM]	IC50 (hD2L) [nM]	IC50 (5-HT1a) [nM]	melting point [°C]	IC50 (hD3) [nM]	IC50 (5-HT2a) [nM]	IC50 [1, 2] [nM]	IC50 [1, 3] [nM]	IC50 (5-HT7) [nM]	IC50 (hD4.2 receptor) [nM]	IC50 (5-HT2c) [nM]	binding affinity at 5-HT6 receptor labeled by [3H]LSD, in words [1]
CN1CCN(c2cc(Cl)cc3c2C(=O)C(C)(c2ccc(O)cc2)C(=O)N3Cc2cccc([N+](=O)[O-])c2)CC1 (stereo not shown) [Example 8, 7-Chloro-3-(4-hydroxy-phenyl)-3-methyl-5-(4-methyl-piperazin-1-yl)-1-(3-nitro-benzyl)-1H-quinoline-2,4-dione]	7040	7290	7510	262 to 264	9020	6950	23.8	16.8	9440	9150	8810	–
CC1(c2ccc(Cl)cc2)C(=O)c2c(N3CCNCC3)cc(Cl)cc2N(Cc2ccccc2)C1=O (stereo not shown) [Example 19, 1-Benzyl-7-chloro-3-(4-chloro-phenyl)-3-methyl-5-piperazin-1-yl-1H-quinoline-2,4-dione]	7040	8450	6550	135 to 136	9140	9100	2.3	15.3	7570	8090	6910	–
CC1(c2ccc([N+](=O)[O-])cc2)C(=O)c2c(N3CCNCC3)cc(Cl)cc2N(Cc2ccccc2)C1=O (stereo not shown) [Example 15, 1-Benzyl-7-chloro-3-methyl-3-(4-nitro-phenyl)-5-piperazin-1-yl-1H-quinoline-2,4-dione]	5810	6660	6350	145 to 146	9740	8120	12.1	15.2	9510	9460	9950	–
COc1ccc(C2(C)C(=O)c3c(N4CCNCC4)cc(Cl)cc3N(Cc3nc4ccccc4[nH]3)C2=O)cc1 (stereo not shown) [Example 43, 1-(1H-Benzoimidazol-2-ylmethyl)-7-chloro-3-(4-methoxy-phenyl)-3-methyl-5-piperazin-1-yl-1H-quinoline-2,4-dione]	6350	9010	8020	178 to 179	9440	5800	137	19.3	9520	9470	7890	–
COc1cccc(C2(C)C(=O)c3c(N4CCNCC4)cc(Cl)cc3N(Cc3ccccc3)C2=O)c1 (stereo not shown) [Example 50, 1-Benzyl-7-chloro-3-(3-methoxy-phenyl)-3-methyl-5-piperazin-1-yl-1H-quinoline-2,4-dione]	7740	7190	> 1000	110 to 112	9760	9150	1.8	18.4	7640	9040	7470	significant affinities
COc1ccc(C2(C)C(=O)c3c(N4CCNCC4)cc(Cl)cc3N(Cc3cccnc3)C2=O)cc1 (stereo not shown) [Example 37, 7-Chloro-3-(4-methoxy-phenyl)-3-methyl-5-piperazin-1-yl-1-pyridin-3-ylmethyl-1H-quinoline-2,4-dione]	7680	8050	9060	160 to 162	> 10000	6020	21.4	19.8	5990	9380	8050	–
CC1(c2ccc(O)cc2)C(=O)c2c(N3CCNCC3)cc(Cl)cc2N(Cc2ccc(O)cc2)C1=O (stereo not shown) [Example 32, 7-Chloro-1-(4-hydroxy-benzyl)-3-(4-hydroxy-phenyl)-3-methyl-5-piperazin-1-yl-1H-quinoline-2,4-dione]	9010	6960	6580	241 to 242	9110	7450	1.7	15.2	8310	9450	7890	significant affinities
COc1ccc(C2(C)C(=O)c3c(N4CCNCC4)cc(Cl)cc3N(Cc3ccccc3OC)C2=O)cc1 (stereo not shown) [Example 29, 7-Chloro-1-(2-methoxy-benzyl)-3-(4-methoxy-phenyl)-3-methyl-5-piperazin-1-yl-1H-quinoline-2,4-dione]	7810	9170	7580	153 to 155	9410	9150	34.2	15	7500	9000	8050	–
COc1ccc(C2(C)C(=O)c3c(N4CCNCC4)cc(Cl)cc3N(Cc3ccc(-c4ccccc4)cc3)C2=O)cc1 (stereo not shown) [Example 41, 1-Biphenyl-4-ylmethyl-7-chloro-3-(4-methoxy-phenyl)-3-methyl-5-piperazin-1-yl-1H-quinoline-2,4-dione]	6000	7680	7810	142 to 144	9000	8470	351	15.5	7010	9110	8090	–
COc1ccc(C2(C)C(=O)c3c(N4CCNCC4)cc(Cl)cc3N(Cc3cccc([N+](=O)[O-])c3)C2=O)cc1 (stereo not shown) [Example 23, 7-Chloro-3-(4-methoxy-phenyl)-3-methyl-1-(3-nitro-benzyl)-5-piperazin-1-yl-1H quinoline-2,4-dione]	7640	6930	9010	153 to 154	9650	6480	2.7	16.7	8450	9090	8400	–
